Data as given in US11014911B2, “CDK2 inhibitors” (Pfizer Inc., priority 2019, dated 2021).
Like-named read-outs stand apart in the source and are kept apart here.

Legend:
GSK3β (H350L) [1] = target: T1, GSK3β (H350L) (Homo sapiens (Human), UniProt P49841); assay: biochemical; settings: GSK3β Ki (nM)
Protocol: (§1) The assay was initiated with the addition of ATP, following 15 minutes pre-incubation of enzyme and inhibitor at room temperature in the reaction mixture. The reaction was stopped after 30 minutes at room temperature by the addition of 50 μL of 80 mM EDTA.

[2] = target: CDK2/Cyclin E1 full length (Homo sapiens (Human), UniProt P24941); assay: CDK2/Cyclin E1 full length mobility shift assay; assay type: biochemical
GSK3β (H350L) [3] = target: T1, GSK3β (H350L); settings: read-out: GSK3β Ki
Protocol: as §1

T1 sequence (P49841 whole entry, stated change not applied): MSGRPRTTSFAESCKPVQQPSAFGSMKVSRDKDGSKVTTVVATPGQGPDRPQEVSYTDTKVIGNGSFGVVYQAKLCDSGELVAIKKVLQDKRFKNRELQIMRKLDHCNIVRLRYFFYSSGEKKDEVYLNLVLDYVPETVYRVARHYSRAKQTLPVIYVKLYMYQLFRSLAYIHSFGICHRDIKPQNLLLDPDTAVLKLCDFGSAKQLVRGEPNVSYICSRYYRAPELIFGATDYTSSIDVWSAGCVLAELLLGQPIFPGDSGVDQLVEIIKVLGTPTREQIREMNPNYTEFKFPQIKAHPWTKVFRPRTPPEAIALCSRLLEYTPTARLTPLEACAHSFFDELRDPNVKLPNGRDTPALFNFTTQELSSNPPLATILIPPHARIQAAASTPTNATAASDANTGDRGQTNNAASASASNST

Ki (GSK3β (H350L) [1]) [nM]	Ki [2] [nM]	SMILES	Ki (GSK3β (H350L) [3]) [nM]
8.9	0.15	COc1cc(CC(=O)Nc2cc([C@H]3CC[C@@H](OC(=O)NC(C)CC(F)(F)F)C3)[nH]n2)ccn1 (single isomer, unassigned) [Example 78]	–
1.63	0.13	COc1cc(CC(=O)Nc2cc([C@H]3CC[C@@H](OC(=O)N4C[C@@H](C#N)[C@@H]4C)C3)[nH]n2)ccn1 (single isomer, unassigned) [Example 155]	–
10.7	1.34	CCC(CO)CNC(=O)O[C@@H]1CC[C@H](c2cc(NC(=O)Cc3cc(F)cc(F)c3)n[nH]2)C1 (single isomer, unassigned) [Example 537]	–
31.3	0.35	Cc1ccc(C(=O)Nc2cc([C@H]3CC[C@@H](OC(=O)NC(C)CC(F)(F)F)C3)[nH]n2)cn1 (single isomer, unassigned) [Example 70]	–
19.7	0.39	COc1cc(CC(=O)Nc2cc([C@H]3CC[C@@H](OC(=O)NC(C)CC(F)(F)F)C3)[nH]n2)ccn1 (single isomer, unassigned) [Example 77]	–
9.59	0.26	Cc1ccc(CC(=O)Nc2cc([C@H]3CC[C@@H](OC(=O)NC(C)CC(F)(F)F)C3)[nH]n2)cn1 (single isomer, unassigned) [Example 75]	–
16.4	0.78	CCC1CCN1C(=O)O[C@@H]1CC[C@H](c2cc(NC(=O)Cc3cc(C)no3)n[nH]2)C1 (single isomer, unassigned) [Example 598]	–
14.7	0.44	CC(CC(F)(F)F)N(C)C(=O)O[C@@H]1CC[C@H](c2cc(NC(=O)Cc3cnn(C)c3)n[nH]2)C1 (single isomer, unassigned) [Example 413]	–
8.87	0.13	COc1ccc(CC(=O)Nc2cc([C@H]3CC[C@@H](OC(=O)NC4(C)CCOC4)C3)[nH]n2)cn1 (single isomer, unassigned) [Example 123]	–
> 47.6	0.67	COCc1cc(C(=O)Nc2cc([C@H]3CC[C@@H](OC(=O)NC4(C)CCOC4)C3)[nH]n2)n(C)n1 (single isomer, unassigned) [Example 487]	–
20.1	0.23	COc1ncc(CC(=O)Nc2cc([C@H]3CC[C@@H](OC(=O)NC4(C)CCOC4)C3)[nH]n2)s1 (single isomer, unassigned) [Example 127]	–
8.85	0.15	Cc1ncc(CC(=O)Nc2cc([C@H]3CC[C@@H](OC(=O)NC(C)CC(F)(F)F)C3)[nH]n2)s1 (single isomer, unassigned) [Example 80]	–
33.3	0.69	CC(CC(F)(F)F)NC(=O)O[C@@H]1CC[C@H](c2cc(NC(=O)Cc3cnco3)n[nH]2)C1 (single isomer, unassigned) [Example 83]	–
30.3	0.32	COc1ccc(CC(=O)Nc2cc([C@H]3CC[C@@H](OC(=O)NC4(C)CCOC4)C3)[nH]n2)cc1 (single isomer, unassigned) [Example 484]	–
–	0.43	Cc1ncc(CC(=O)Nc2cc([C@@H]3CC[C@H](OC(=O)N[C@H]4CC[C@@](C)(O)CC4)C3)[nH]n2)s1 [Example 562, (1S,3R)-3-(3-{[(2-methyl-1,3-thiazol-5-yl)acetyl]amino}-1H-pyrazol-5-yl)cyclopentyl (cis-4-hydroxy-4-methylcyclohexyl)carbamate]	4.85
–	0.33	C[C@H]1COCCN1C(=O)O[C@@H]1CC[C@H](c2cc(NC(=O)Cc3cc(F)cc(F)c3)n[nH]2)C1 [Example 644, (1R,3S)-3-(3-{[(3,5-difluorophenyl)acetyl]amino}-1H-pyrazol-5-yl)cyclopentyl (3S)-3-methylmorpholine-4-carboxylate]	8.71

SMILES	Ki (GSK3β (H350L) [1]) [nM]	Ki [2] [nM]	Ki (GSK3β (H350L) [3]) [nM]
COCc1cc(C(=O)Nc2cc([C@H]3CC[C@@H](OC(=O)NC4(C)CC4)C3)[nH]n2)n(C)n1 [Example 8, (1R,3S)-3-[3-({[3-(methoxymethyl)-1-methyl-1H-pyrazol-5-yl]carbonyl}amino)-1H-pyrazol-5-yl]cyclopentyl (1-methylcyclopropyl)carbamate]	667	0.5	–
COc1ccc(CC(=O)Nc2cc([C@H]3CC[C@@H](OC(=O)N4C[C@@H](C#N)[C@@H]4C)C3)[nH]n2)cn1 (single isomer, unassigned) [Example 158]	0.78	0.17	–
CCC(CO)CNC(=O)O[C@@H]1CC[C@H](c2cc(NC(=O)Cc3cnc(C)s3)n[nH]2)C1 (single isomer, unassigned) [Example 528]	3.6	1.11	–
COc1cc(CC(=O)Nc2cc([C@H]3CC[C@@H](OC(=O)NC(C)C(C)(F)F)C3)[nH]n2)ccn1 (single isomer, unassigned) [Example 393]	34	0.97	–
COc1ccc(S(C)(=O)=O)c(CC(=O)Nc2cc([C@H]3CC[C@@H](OC(=O)NC(C)C(F)(F)F)C3)[nH]n2)c1 (single isomer, unassigned) [Example 291]	> 47.6	0.43	–
CCC(CO)CNC(=O)O[C@@H]1CC[C@H](c2cc(NC(=O)Cc3cc(C)no3)n[nH]2)C1 (single isomer, unassigned) [Example 524]	10.9	1.69	–
Cc1ncc(CC(=O)Nc2cc([C@H]3CC[C@@H](OC(=O)NC4(C)CCOC4)C3)[nH]n2)s1 (single isomer, unassigned) [Example 482]	36.2	0.55	–
CCC(CO)CNC(=O)O[C@@H]1CC[C@H](c2cc(NC(=O)Cc3ccc(OC)nc3)n[nH]2)C1 (single isomer, unassigned) [Example 533]	1.41	0.77	–
CCC(NC(=O)O[C@@H]1CC[C@H](c2cc(NC(=O)Cc3ccc(C)nc3)n[nH]2)C1)C(F)(F)F (single isomer, unassigned) [Example 398]	44.1	0.65	–
Cc1ccc(CC(=O)Nc2cc([C@H]3CC[C@@H](OC(=O)NC(C)C(C)(F)F)C3)[nH]n2)cn1 (single isomer, unassigned) [Example 388]	36.9	2.34	–
Cc1ccc(CC(=O)Nc2cc([C@H]3CC[C@@H](OC(=O)NC(C)C(C)(F)F)C3)[nH]n2)cn1 (single isomer, unassigned) [Example 389]	18.3	0.83	–
CCC(CO)CNC(=O)O[C@@H]1CC[C@H](c2cc(NC(=O)Cc3cc(C)no3)n[nH]2)C1 (single isomer, unassigned) [Example 525]	7.01	1.24	–
CC[C@H](C)NC(=O)O[C@@H]1CC[C@H](c2cc(NC(=O)Cc3cn4nc(C)sc4n3)n[nH]2)C1 [Example 359, (1R,3S)-3-(3-{[(2-methylimidazo[2,1-b][1,3,4]thiadiazol-6-yl)acetyl]amino}-1H-pyrazol-5-yl)cyclopentyl (2S)-butan-2-ylcarbamate]	–	0.39	28.5
CC[C@H](C)NC(=O)O[C@@H]1CC[C@H](c2cc(NC(=O)Cc3cnn(C(C)C)c3)n[nH]2)C1 [Example 349, (1R,3S)-3-[3-({[1-(propan-2-yl)-1H-pyrazol-4-yl]acetyl}amino)-1H-pyrazol-5-yl]cyclopentyl (2S)-butan-2-ylcarbamate]	–	0.4	57.3
CC[C@H](C)NC(=O)O[C@@H]1CC[C@H](c2cc(NC(=O)Cc3cnn(C)c3)n[nH]2)C1 [Example 327, (1R,3S)-3-(3-{[(1-methyl-1H-pyrazol-4-yl)acetyl]amino}-1H-pyrazol-5-yl)cyclopentyl (2S)-butan-2-ylcarbamate]	–	0.44	57.8
